The text below walks through data of patent US9629891B2, “Products and methods for aortic abdominal aneurysm” (NATIONWIDE CHILDREN'S HOSPITAL, INC., priority 2011, dated 2017).

Entries after “also recorded” stand apart in the source; their conditions may differ.

Experiment [1] has as its system AngII-induced mouse model of AAA. Nature of the experiment: Progression of active AAA in AngII-induced mouse model, Example 8. The class given is in vivo. As to the method: Active aneurysm was introduced in ApoE^−/− mice (n=36) by administering AngII. DAPT (10 mg/kg; 3 times a week) was injected in these mice starting either 3 days (Group II; n=12) or 8 days (Group III; n=12) after AngII infusion. Group I (n=12) received vehicle (10% alcohol in corn oil) only. The time periods were chosen so that a small aortic dilation is established before DAPT is administered.
The increased collagen content in the aorta of ApoE^−/− mice in response to AngII provides stability to the tissue against sudden rupture.

Experiment [2] concerns RAW 264.7. As to the kind of experiment: Inflammatory mediator mRNA expression (qRT-PCR) in unstimulated RAW cells. The class given is cell-based. The settings on record: 10 μM DAPT for 6 days, vs untreated cells. As to the method:
(§1) The aorta was isolated from experimental mice at day 28 of AngII infusion and immediately frozen in RNA-later (Ambion, Austin, Tex.). Abdominal aorta of equal length was cut from the abdominal region of ApoE^−/− and Notch1^+/−ApoE^−/− mice and RNA was extracted using RNAqueous kit (Ambion, Austin, Tex.). RAW cells (264.7) were obtained from ATCC (Manassas, Va.) and were cultured following the manufacturer's instructions. Naïve macrophages were collected from the peritoneal cavity of ApoE^−/− or Notch1^+/−ApoE^−/− mice by standard protocol [Hans et al., Cardiovasc. Pathol., 185:1894-902 (2011); Hans et al., Cardiovasc. Res., 78:429-439 (2008); Oumouna-Benachour et al., Circulation, 115:2442-2450 (2007)]. The isolated macrophages were cultured in RPMI containing 10% FCS for 3 days and were then treated with 100 nM LPS or diluent for 3 h in RPMI containing 1% FCS. Following treatment, the macrophages were washed with cold PBS and RNA was extracted using RNAeasy kit (Qiagen, Valencia, Calif.). cDNA was synthesized using SuperScript® VILO™ cDNA Synthesis Kit (Invitrogen, Carlsbad, Calif.) and subjected to qRT-PCR by SYBR Green RT-PCR kit (Applied Biosystems, Foster City Calif.) using Applied Biosystems 7500 Fast Real-Time PCR System (Foster City Calif.). qRT-PCR was performed in triplicate and fold change determined by standardization to 18S rRNA. Results were normalized to the controls. […]
In general terms: Quantitative PCR measures a nucleic acid by following its amplification.

For experiment [3], the system named is AngII-induced mouse model of AAA. Nature of the experiment: Prophylactic Notch inhibition in AngII-induced mouse model of AAA. The settings on record: ApoE−/− mice. In kind it is in vivo. As to the method:
Mini osmotic pumps (Model 2004; Alzet, Cupertino, Calif.) containing AngII (1000 ng/min/kg) or saline were implanted subcutaneously in the neck region of anesthetized mice following standard protocol [Daugherty et al., J. Clin. Invest., 105:1605-1612 (2000)]. Three independent experiments were performed to determine the effect of Notch1 haploinsufficiency on the formation of AAA. In one of these three experiments the effects of pharmacological inhibition of Notch were tested on AAA formation. Mice (n=3) were injected with a Notch inhibitor, DAPT (10 mg/kg dissolved in 10% ethanol, 90% corn oil), three times a week subcutaneously starting one week before the implantation of osmotic pump and continuing for an additional 28 days until the mice were sacrificed, as explained for FIG. 6. [Loane et al., Nat. Med., 15:377-379 (2009); Lanz et al., J. Pharmacol. Exp. Ther., 305:864-871 (2003); Sjolund et al., J. Clin. Invest., 118:217-228 (2008)].
Two dimensional (B-mode) in vivo ultrasound images were obtained at weekly intervals after the implantation of osmotic pumps using a VisualSonics Vevo2100 imaging system (Ontario, Canada) with a mechanical transducer (MS400). After 28 days, the animals were euthanized and the aortas were dissected and fixed in 10% formalin. Minimum and maximum diameters of each vessel were determined by digitalized measurement (Zeiss AxioImager upright microscope with brightfield).
Histological examination of the abdominal aorta of the AngII and saline treated mutant mice was performed. The abdominal region of the aorta were embedded in paraffin and serial sections ([…]) were obtained. Sections were stained with hematoxylin and eosin (HE), elastin staining (Sigma, St. Louis, Mo.), and terminal deoxynucleotidyl transferasemediated dUTP nick-end labeling (TUNEL) staining (Roche, Indianapolis, Ind.). Statistical comparisons were performed using either Student's t-test or one-way ANOVA followed by the Bonferroni's Multiple Comparison Test. GraphPad PRISM V5.0 (San Diego, Calif.) was used for these comparisons and a P value<0.05 was considered significant. […]

In experiment [4] the test system is RAW 264.7. Nature of the experiment: Inflammatory mediator mRNA expression (qRT-PCR) in LPS-stimulated RAW cells. In kind it is cell-based. The settings on record: pre-treatment with 10 μM DAPT, RAW cells with 100 ng/ml LPS for 3 hours, vs non-DAPT treated cells. On the procedure:
as §1

For experiment [5], the system named is AngII-induced mouse model of AAA. Nature of the experiment: Therapeutic Notch inhibition (start day 3 or day 8) in AngII-induced mouse model of AAA, Example 7. The class given is in vivo. The note with it: ApoE−/− mice. The source says:
In the study, mice were divided into four groups: • ApoE^−/− mice with AngII plus vehicle for 28 days (n=6); • ApoE^−/− mice with AngII plus DAPT (7 days prior to AngII infusion, n=6); • ApoE^−/− mice with AngII plus DAPT (3 days after AngII infusion, n=9); and • ApoE^−/− mice with AngII plus DAPT (8 days after AngII infusion, n=9).
These time periods were carefully selected to determine the effect of Notch inhibition on the formation of AAA before the onset of disease (−7 days), at day 3 (onset of inflammation) and day 8 (elastin degradation and cellular remodeling).
NOTCH inhibitor (DAPT; 10 mg/kg; […] in corn oil) given at day 3 and day 8 after the AngII infusion reduced the progression of active AAA in the mouse model.

Where [6] appears, read: AngII infusion 28 days, DAPT 10 mg/kg three times a week from one week before AngII, vs untreated ApoE−/− mice.

As for `C[C@H](NC(=O)Cc1cc(F)cc(F)c1)C(=O)N[C@H](C(=O)OC(C)(C)C)c1ccccc1` [DAPT, N—[N-(3,5-Difluorophenacetyl)-L-alanyl]-S-phenylglycine t-butyl ester], the “luminal expansion of the abdominal aorta” value in experiment [1] (ApoE−/− mice, AngII, DAPT 10 mg/kg 3 times a week from day 3 (Group II) or day 8 (Group III), vs vehicle, echocardiography, p<0.05) was “significantly reduced”. In addition, the “expression of MMP2 and MMP9 in the aortas” value in experiment [1] (Group II and Group III vs Group I (vehicle), quantitative real-time PCR and immunohistochemistry) is on record as “decreased”. Also, in experiment [1] (Group III (DAPT from day 8)), the “monocyte chemotactic protein-1” value is on record as “not associated with increased monocyte chemotactic protein-1”; the “newly synthesized tropoelastin and collagen staining” value was “increased expression”. Moreover, the “macrophage content (CD-68)” value in experiment [1] (Group III (DAPT from day 8) vs Group I (vehicle), marginal increase vs Group II) was “significantly less than Group I”. Moreover, the “elastin fragmentation and aortic remodeling” value in experiment [1] (both groups (DAPT from day 3 or day 8), histology) is reported as “prevented”. Besides, the “expression of MCP-1, IL-6, TNF-α, CXCL-10, VEGF, iNOS, ICAM-1, and VCAM-1” value in experiment [2] is listed as “Decreased expression; also recorded: significantly decreased”. Further, in experiment [3] (setting [6]), the aortic diameter result is “statistically significant reduction” and the “incidence of AAA” value is reported as “statistically significant reduction”. Further, the “histologic analysis of the aorta” value in experiment [3] (AngII infusion, DAPT 10 mg/kg prophylactic, vs untreated mice) is “no evidence of abdominal aneurysm; also recorded: normal aortic wall architecture without infiltration of inflammatory cells”. For the same compound, the “expression of MCP-1, IL-6, TNF-α, CXCL-10, VEGF, iNOS, and ICAM-1” value in experiment [4] is “Decreased expression; also recorded: significantly reduced”. Besides, in experiment [5] (AngII, DAPT treatment started at day 3 and day 8), the “maximal abdominal aortic width at day 28” value is listed as “significantly decreased”. Further, in experiment [5] (DAPT 10 mg/kg in corn oil given at day 3 and day 8 after AngII infusion), the “progression of active AAA” value was “reduced”.
